Measured values published in ChEMBL document CHEMBL4507272 (2021).

Tests used:
[1] = target: Serine/threonine-protein kinase Sgk2 (Homo sapiens) (UniProt Q9HBY8); conditions: Compound concentration 1000.0 nM
[2] = target: 1-phosphatidylinositol 3-phosphate 5-kinase (Homo sapiens) (UniProt Q9Y2I7); conditions: Compound concentration 1000.0 nM
[3] = target: Tyrosine-protein kinase Srms (Homo sapiens) (UniProt Q9H3Y6); conditions: Compound concentration 1000.0 nM
[4] = target: Serine/threonine-protein kinase tousled-like 2 (Homo sapiens) (UniProt Q86UE8); conditions: Compound concentration 1000.0 nM
[5] = target: Interleukin-1 receptor-associated kinase 4 (Homo sapiens) (UniProt Q9NWZ3); conditions: Compound concentration 1000.0 nM
[6] = tested on: Receptor-type tyrosine-protein kinase FLT3 (Homo sapiens), P36888 [D835Y]; conditions: Compound concentration 1000.0 nM
[7] = tested on: Epidermal growth factor receptor (Homo sapiens), P00533 [T790M]; conditions: Compound concentration 1000.0 nM
[8] = target: Mitogen-activated protein kinase 3 (Homo sapiens) (UniProt P27361); conditions: Compound concentration 1000.0 nM
[9] = target: Calcium/calmodulin-dependent protein kinase type II subunit gamma (Homo sapiens) (UniProt Q13555); conditions: Compound concentration 1000.0 nM
[10] = target: Ephrin type-A receptor 5 (Homo sapiens) (UniProt P54756); conditions: Compound concentration 1000.0 nM
[11] = target: Testis-specific serine/threonine-protein kinase 3 (Homo sapiens) (UniProt Q96PN8); conditions: Compound concentration 1000.0 nM
[12] = target: Phosphatidylinositol 4-phosphate 5-kinase type-1 gamma (Homo sapiens) (UniProt O60331); conditions: Compound concentration 1000.0 nM
[13] = target: Cyclin-dependent kinase 5 (Homo sapiens) (UniProt Q00535); conditions: Compound concentration 1000.0 nM
[14] = target: Serine/threonine-protein kinase Chk1 (Homo sapiens) (UniProt O14757); conditions: Compound concentration 1000.0 nM
[15] = target: Uncharacterized serine/threonine-protein kinase SBK3 (Homo sapiens) (UniProt P0C264); conditions: Compound concentration 1000.0 nM
[16] = target: Mitogen-activated protein kinase kinase kinase 11 (Homo sapiens) (UniProt Q16584); conditions: Compound concentration 1000.0 nM
[17] = target: Ephrin type-A receptor 7 (Homo sapiens) (UniProt Q15375); conditions: Compound concentration 1000.0 nM
[18] = target: Interleukin-1 receptor-associated kinase 1 (Homo sapiens) (UniProt P51617); conditions: Compound concentration 1000.0 nM
[19] = target: Mitogen-activated protein kinase kinase kinase 5 (Homo sapiens) (UniProt Q99683); conditions: Compound concentration 1000.0 nM
[20] = target: NT-3 growth factor receptor (Homo sapiens) (UniProt Q16288); conditions: Compound concentration 1000.0 nM
[21] = target: SRSF protein kinase 3 (Homo sapiens) (UniProt Q9UPE1); conditions: Compound concentration 1000.0 nM
[22] = target: Serine/threonine-protein kinase Sgk3 (Homo sapiens) (UniProt Q96BR1); conditions: Compound concentration 1000.0 nM
[23] = target: Calcium/calmodulin-dependent protein kinase type 1G (Homo sapiens) (UniProt Q96NX5); conditions: Compound concentration 1000.0 nM
[24] = target: Histamine H3 receptor (Homo sapiens, UniProt Q9Y5N1); test: GPCRScan assay: inhibition of H3; set-up: radioligand conc. used [nm] 0.5 – 1.0, parental cells HEK Flp-In
[25] = tested on: Phosphatidylinositol 4,5-bisphosphate 3-kinase catalytic subunit alpha isoform (Homo sapiens), P42336 [E542K]; conditions: Compound concentration 1000.0 nM
[26] = tested on: Tyrosine-protein kinase ABL1 (Homo sapiens), P00519 [Y253F]; conditions: Compound concentration 1000.0 nM
[27] = tested on: Receptor-type tyrosine-protein kinase FLT3 (Homo sapiens), P36888 [K663Q]; conditions: Compound concentration 1000.0 nM
[28] = target: Serine/threonine-protein kinase pim-3 (Homo sapiens) (UniProt Q86V86); conditions: Compound concentration 1000.0 nM
[29] = target: Serine/threonine-protein kinase DCLK2 (Homo sapiens) (UniProt Q8N568); conditions: Compound concentration 1000.0 nM
[30] = target: Homeodomain-interacting protein kinase 2 (Homo sapiens) (UniProt Q9H2X6); conditions: Compound concentration 1000.0 nM
[31] = tested on: Epidermal growth factor receptor (Homo sapiens), P00533 [L858R]; conditions: Compound concentration 1000.0 nM
[32] = target: Aurora kinase A (Homo sapiens) (UniProt O14965); conditions: Compound concentration 1000.0 nM
[33] = target: Serine/threonine-protein kinase PLK1 (Homo sapiens) (UniProt P53350); conditions: Compound concentration 1000.0 nM
[34] = target: Mitogen-activated protein kinase 9 (Homo sapiens) (UniProt P45984); conditions: Compound concentration 1000.0 nM
[35] = target: Serine/threonine-protein kinase 33 (Homo sapiens) (UniProt Q9BYT3); conditions: Compound concentration 1000.0 nM
[36] = target: Cyclin-dependent kinase 17 (Homo sapiens) (UniProt Q00537); conditions: Compound concentration 1000.0 nM
[37] = target: Tyrosine-protein kinase BTK (Homo sapiens) (UniProt Q06187); conditions: Compound concentration 1000.0 nM
[38] = target: Receptor-interacting serine/threonine-protein kinase 1 (Homo sapiens) (UniProt Q13546); conditions: Compound concentration 1000.0 nM
[39] = tested on: Phosphatidylinositol 4,5-bisphosphate 3-kinase catalytic subunit alpha isoform (Homo sapiens), P42336 [H1047L]; conditions: Compound concentration 1000.0 nM
[40] = target: Testis-specific serine/threonine-protein kinase 1 (Homo sapiens) (UniProt Q9BXA7); conditions: Compound concentration 1000.0 nM
[41] = target: 5-hydroxytryptamine receptor 3A (Homo sapiens) (UniProt P46098); conditions: Compound concentration 10.0 uM
[42] = target: Serine/threonine-protein kinase STK11 (Homo sapiens) (UniProt Q15831); conditions: Compound concentration 1000.0 nM
[43] = tested on: Serine/threonine-protein kinase B-raf (Homo sapiens), P15056 [V600E]; conditions: Compound concentration 1000.0 nM
[44] = target: STE20-like serine/threonine-protein kinase (Homo sapiens) (UniProt Q9H2G2); conditions: Compound concentration 1000.0 nM
[45] = tested on: Epidermal growth factor receptor (Homo sapiens), P00533 [G719C]; conditions: Compound concentration 1000.0 nM

Sequence of Histamine H3 receptor (Q9Y5N1 whole entry, canonical isoform): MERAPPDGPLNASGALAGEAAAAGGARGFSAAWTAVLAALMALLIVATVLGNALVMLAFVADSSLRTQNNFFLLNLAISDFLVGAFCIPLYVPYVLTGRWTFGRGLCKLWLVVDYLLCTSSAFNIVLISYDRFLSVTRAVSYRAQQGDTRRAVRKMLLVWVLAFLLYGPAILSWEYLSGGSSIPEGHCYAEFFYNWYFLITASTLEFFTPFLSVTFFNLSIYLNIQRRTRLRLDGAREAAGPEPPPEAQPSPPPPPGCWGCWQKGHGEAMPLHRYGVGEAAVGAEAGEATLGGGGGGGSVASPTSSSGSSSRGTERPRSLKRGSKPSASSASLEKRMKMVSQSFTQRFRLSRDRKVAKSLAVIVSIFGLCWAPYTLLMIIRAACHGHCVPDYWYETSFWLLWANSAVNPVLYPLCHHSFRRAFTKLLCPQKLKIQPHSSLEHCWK
Sequence of Uncharacterized serine/threonine-protein kinase SBK3 (Homo sapiens) (P0C264 whole entry): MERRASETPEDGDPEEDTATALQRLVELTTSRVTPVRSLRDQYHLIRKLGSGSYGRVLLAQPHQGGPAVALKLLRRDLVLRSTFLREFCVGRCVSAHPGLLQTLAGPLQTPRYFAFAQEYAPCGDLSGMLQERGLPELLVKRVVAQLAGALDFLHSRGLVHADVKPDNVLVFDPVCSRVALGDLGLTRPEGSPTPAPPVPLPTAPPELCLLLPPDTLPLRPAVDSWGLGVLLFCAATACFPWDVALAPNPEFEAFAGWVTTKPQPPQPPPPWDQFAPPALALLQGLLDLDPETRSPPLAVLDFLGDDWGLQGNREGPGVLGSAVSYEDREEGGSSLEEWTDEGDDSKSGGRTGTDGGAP
Sequence of Homeodomain-interacting protein kinase 2 (Homo sapiens) (Q9H2X6 whole entry, looked up): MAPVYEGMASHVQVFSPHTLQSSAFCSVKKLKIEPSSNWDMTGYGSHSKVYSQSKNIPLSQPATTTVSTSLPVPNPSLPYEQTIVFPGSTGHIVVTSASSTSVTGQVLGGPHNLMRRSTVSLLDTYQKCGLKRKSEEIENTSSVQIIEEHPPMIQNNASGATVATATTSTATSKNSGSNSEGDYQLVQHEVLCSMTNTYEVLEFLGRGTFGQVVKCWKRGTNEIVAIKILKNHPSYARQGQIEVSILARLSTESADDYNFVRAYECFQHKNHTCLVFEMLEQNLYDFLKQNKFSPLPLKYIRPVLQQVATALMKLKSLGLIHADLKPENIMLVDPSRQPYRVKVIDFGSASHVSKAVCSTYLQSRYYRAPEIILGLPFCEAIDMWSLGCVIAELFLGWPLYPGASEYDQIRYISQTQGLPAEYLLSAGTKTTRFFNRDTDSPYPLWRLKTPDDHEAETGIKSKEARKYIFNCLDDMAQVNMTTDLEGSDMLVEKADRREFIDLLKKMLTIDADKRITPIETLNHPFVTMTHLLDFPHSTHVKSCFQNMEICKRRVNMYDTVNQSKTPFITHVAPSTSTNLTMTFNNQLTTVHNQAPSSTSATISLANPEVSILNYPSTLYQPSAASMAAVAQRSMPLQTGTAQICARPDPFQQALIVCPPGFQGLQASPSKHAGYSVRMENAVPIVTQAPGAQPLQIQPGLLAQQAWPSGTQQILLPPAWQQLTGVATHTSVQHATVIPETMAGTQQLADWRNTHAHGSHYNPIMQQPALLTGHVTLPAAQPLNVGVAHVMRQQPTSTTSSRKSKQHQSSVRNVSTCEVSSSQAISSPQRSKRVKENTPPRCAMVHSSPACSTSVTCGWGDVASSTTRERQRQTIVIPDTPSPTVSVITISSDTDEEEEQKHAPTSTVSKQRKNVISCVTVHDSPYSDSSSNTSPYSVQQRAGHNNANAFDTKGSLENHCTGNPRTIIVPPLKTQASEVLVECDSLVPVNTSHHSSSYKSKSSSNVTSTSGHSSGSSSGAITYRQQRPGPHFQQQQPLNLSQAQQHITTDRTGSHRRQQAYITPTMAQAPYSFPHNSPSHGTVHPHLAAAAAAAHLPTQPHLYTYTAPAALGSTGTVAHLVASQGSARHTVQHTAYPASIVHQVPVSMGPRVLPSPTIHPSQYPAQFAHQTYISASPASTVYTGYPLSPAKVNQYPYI
Sequence of Serine/threonine-protein kinase PLK1 (Homo sapiens) (P53350 whole entry): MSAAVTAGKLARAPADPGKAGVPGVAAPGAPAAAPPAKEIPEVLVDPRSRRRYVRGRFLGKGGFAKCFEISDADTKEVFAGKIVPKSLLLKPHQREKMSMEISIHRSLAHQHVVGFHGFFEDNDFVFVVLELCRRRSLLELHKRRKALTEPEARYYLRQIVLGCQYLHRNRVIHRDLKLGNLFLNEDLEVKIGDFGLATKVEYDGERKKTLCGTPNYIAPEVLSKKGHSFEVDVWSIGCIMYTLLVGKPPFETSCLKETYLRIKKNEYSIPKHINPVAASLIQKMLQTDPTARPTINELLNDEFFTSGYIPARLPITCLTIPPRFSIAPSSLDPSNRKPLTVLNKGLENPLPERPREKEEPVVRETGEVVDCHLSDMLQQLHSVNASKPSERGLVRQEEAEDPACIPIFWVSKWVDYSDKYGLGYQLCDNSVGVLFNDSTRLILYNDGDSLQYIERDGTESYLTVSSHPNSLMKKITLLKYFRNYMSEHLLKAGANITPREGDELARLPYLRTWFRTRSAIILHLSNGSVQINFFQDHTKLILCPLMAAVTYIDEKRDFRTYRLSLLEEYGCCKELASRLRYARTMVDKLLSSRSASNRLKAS
Sequence of Serine/threonine-protein kinase Chk1 (Homo sapiens) (O14757 whole entry): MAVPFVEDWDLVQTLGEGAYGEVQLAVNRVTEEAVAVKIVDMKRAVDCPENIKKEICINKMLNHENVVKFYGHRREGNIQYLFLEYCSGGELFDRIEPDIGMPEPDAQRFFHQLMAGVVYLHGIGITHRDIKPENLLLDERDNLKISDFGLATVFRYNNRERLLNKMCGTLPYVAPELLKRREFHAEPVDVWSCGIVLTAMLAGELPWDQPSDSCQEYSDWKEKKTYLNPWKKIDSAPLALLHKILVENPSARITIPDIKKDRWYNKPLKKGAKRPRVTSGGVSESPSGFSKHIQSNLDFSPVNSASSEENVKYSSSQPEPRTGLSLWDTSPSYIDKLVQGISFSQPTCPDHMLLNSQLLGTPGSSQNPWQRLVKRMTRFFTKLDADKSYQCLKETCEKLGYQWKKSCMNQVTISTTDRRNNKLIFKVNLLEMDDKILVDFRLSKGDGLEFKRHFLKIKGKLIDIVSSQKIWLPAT
Sequence of Mitogen-activated protein kinase 9 (Homo sapiens) (P45984 whole entry, looked up): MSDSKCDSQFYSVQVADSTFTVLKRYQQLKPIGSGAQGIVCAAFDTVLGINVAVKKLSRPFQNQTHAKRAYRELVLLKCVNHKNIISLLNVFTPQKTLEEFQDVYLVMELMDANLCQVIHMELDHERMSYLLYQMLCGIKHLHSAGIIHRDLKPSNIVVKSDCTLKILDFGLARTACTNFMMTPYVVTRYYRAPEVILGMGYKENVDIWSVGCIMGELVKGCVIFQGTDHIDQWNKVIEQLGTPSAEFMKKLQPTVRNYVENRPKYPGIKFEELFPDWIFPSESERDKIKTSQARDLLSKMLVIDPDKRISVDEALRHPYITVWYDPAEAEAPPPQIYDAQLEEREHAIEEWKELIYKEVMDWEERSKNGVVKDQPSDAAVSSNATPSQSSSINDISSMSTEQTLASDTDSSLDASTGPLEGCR
Sequence of Interleukin-1 receptor-associated kinase 4 (Homo sapiens) (Q9NWZ3 whole entry): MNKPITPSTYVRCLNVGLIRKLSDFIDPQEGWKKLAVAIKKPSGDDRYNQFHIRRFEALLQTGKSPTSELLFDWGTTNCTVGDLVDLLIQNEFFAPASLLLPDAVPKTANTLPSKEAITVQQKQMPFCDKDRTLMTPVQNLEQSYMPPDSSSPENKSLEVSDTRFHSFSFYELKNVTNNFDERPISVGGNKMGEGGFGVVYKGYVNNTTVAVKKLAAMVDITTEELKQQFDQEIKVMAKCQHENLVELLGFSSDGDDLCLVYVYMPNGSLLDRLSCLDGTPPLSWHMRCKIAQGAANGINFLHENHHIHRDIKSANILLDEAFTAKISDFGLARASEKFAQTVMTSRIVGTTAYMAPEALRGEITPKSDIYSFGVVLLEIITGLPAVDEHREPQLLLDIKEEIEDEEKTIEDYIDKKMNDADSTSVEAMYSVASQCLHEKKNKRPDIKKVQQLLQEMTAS
Sequence of Tyrosine-protein kinase BTK (Homo sapiens) (Q06187 whole entry): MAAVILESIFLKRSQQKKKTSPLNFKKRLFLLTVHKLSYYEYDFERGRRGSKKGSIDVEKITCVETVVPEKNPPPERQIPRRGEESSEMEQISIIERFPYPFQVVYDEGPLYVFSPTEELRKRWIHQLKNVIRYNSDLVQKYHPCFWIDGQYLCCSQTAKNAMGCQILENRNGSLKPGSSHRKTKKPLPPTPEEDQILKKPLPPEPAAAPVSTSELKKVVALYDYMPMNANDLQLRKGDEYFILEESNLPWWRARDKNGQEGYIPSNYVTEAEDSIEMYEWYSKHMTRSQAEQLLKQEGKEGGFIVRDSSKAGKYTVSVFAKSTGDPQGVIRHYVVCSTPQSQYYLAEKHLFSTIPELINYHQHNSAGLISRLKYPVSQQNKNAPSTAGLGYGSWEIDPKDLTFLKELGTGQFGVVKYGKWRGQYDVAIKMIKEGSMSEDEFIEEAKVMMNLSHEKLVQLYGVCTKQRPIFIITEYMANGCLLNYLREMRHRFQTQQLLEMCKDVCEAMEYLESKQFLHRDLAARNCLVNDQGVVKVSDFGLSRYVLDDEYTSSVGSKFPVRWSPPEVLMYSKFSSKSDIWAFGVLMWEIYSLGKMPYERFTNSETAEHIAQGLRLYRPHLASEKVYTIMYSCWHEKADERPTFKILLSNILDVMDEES

CC(=O)C1=C(C)N(c2cccc(C(F)(F)F)c2)C(=O)N[C@@H]1c1ccc(C#N)nc1 [BAY-678]
inactive: residual activity [1] 100% | residual activity [2] 90% | residual activity [3] 97.9% | residual activity [4] 100% | residual activity [5] 100% | residual activity [6] 93.9% | residual activity [7] 67.2% | residual activity [8] 97.1% | residual activity [9] 100% | residual activity [10] 98.2% | residual activity [11] 96.2% | residual activity [12] 100% | residual activity [13] 100% | residual activity [14] 73.2% | residual activity [15] 100% | residual activity [16] 100% | residual activity [17] 100% | residual activity [18] 100% | residual activity [19] 94.8% | residual activity [20] 100% | residual activity [21] 100% | residual activity [22] 100% | residual activity [23] 100% | residual activity [25] 100% | residual activity [26] 100% | residual activity [27] 100% | residual activity [28] 100% | residual activity [29] 88% | residual activity [30] 94.3% | residual activity [31] 80.8% | residual activity [32] 83.9% | residual activity [33] 100% | residual activity [34] 100% | residual activity [35] 91.6% | residual activity [36] 100% | residual activity [37] 100% | residual activity [38] 85.8% | residual activity [39] 69% | residual activity [40] 100% | inhibition [41] -7.63% | residual activity [42] 72.8% | residual activity [43] 100% | residual activity [44] 98.4% | residual activity [45] 100%
2820 nM: Ki ([24]; read-out: pKi (converted))
3070 nM: Ki ([24]; read-out: Ki)
